Patent US7632839B2, “Mitotic kinesin inhibitors” (Merck & Co. Inc., priority 2005, dated 2009)

Target: T1, human KSP motor domain (KSP(367H)) (Homo sapiens, UniProt P52732)
T1 construct: were used to amplify the motor domain and the neck linker region; made in house; host or cells: E. coli BL21 (DE3), pRSETa
T1 sequence (P52732 18-359 limits assumed): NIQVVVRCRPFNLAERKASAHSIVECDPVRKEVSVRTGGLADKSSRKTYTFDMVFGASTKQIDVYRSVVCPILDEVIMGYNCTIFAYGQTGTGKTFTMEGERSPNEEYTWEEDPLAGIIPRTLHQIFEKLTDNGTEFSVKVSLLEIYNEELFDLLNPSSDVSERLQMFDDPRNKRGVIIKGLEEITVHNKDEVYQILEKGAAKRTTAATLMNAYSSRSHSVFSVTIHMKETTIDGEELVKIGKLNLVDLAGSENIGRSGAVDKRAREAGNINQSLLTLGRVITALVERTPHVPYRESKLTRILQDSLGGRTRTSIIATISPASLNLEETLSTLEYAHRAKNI
Assay: Kinesin ATPase In Vitro Assay
Assay type: biochemical
Settings: KSP motor domain with microtubules, 1 mM ATP, 23° C.
From the text: I. Kinesin ATPase In Vitro Assay
Cloning and Expression of Human Poly-Histidine Tagged KSP Motor Domain (KSP(367H))
Plasmids for the expression of the human KSP motor domain construct were cloned by PCR using a pBluescript full length human KSP construct (Blangy et al., Cell, vol. 83, pp 1159-1169, 1995) as a template. The N-terminal primer 5′-[…] (SEQ.ID.NO.: 1) and the C-terminal primer 5′-[…] […] (SEQ.ID.NO.: 2) were used to amplify the motor domain and the neck linker region. The PCR products were digested with AseI and XhoI, ligated into the NdeI/XhoI digestion product of pRSETa (Invitrogen) and transformed into E. coli BL21 (DE3).
Cells were grown at 37° C. to an OD600 of 0.5. […]
The kinesin motor domain is incubated with microtubules, 1 mM ATP (1:1 MgCl2: Na-ATP), and compound at 23° C. in buffer containing 80 mM K-HEPES (pH 7.0), 1 mM EGTA, 1 mM DTT, 1 mM MgCl2, and 50 mM KCl. […] Free phosphate from the ATP hydrolysis reaction is measured via a quinaldine red/ammonium molybdate assay by adding 150 μl of quench C buffer containing a 2:1 ratio of quench A:quench B. Quench A contains 0.1 mg/ml quinaldine red and 0.14% polyvinyl alcohol; quench B contains 12.3 mM ammonium molybdate tetrahydrate in 1.15 M sulfuric acid. The reaction is incubated for 10 minutes at 23° C., and the absorbance of the phospho-molybdate complex is measured at 540 nm.

Structure (SMILES): Cc1ccc(C(=O)N(CC(F)CN)C(c2nc3cnccc3c(=O)n2Cc2ccccc2)C(C)C)cc1 [Compound I-13, N-(3-amino-2-(R,S)-fluoropropyl)-N-[1-(3-benzyl-4-oxo-3,4-dihydropyrido[3,4-d]pyrimidin-2-yl)-2-(R,S)-methylpropyl]-4-methylbenzamide]
- IC50: ≤ 50 µM
